Test results: patent publication US10253069B2, “Compositions and methods for regulating arterial tone” (University of Virginia Patent Foundation, priority 2012, dated 2019)

What was measured:
[1] = system: eNOS phosphorylation on serine 1177; assay: Western blot of pS1177 eNOS in coronary endothelial cells; assay type: cell-based, human; conditions: 5 μmol/L peptide, 20 minutes
Procedure: (§1) Primary coronary endothelial cells (Lonza) were cultured on plastic 6-well dishes as previously described^9. For studies involving basal NO release, endothelial cells were incubated with 5 μmol/L of Scr X or Hb α X for 20 minutes followed by medium collection and nitrite measurements as described below. For bradykinin studies, coronary endothelial cells were grown to confluence followed by serum starvation overnight in a cocktail of Lonza EGM-2 medium supplemented with EGM-2 bullet kit and Opti MEM reduced growth medium using a ratio of 1:9 respectively. The next day, endothelial cells were incubated with Scr X or Hb α X peptide for 20 minutes followed by the addition of 10 μM bradykinin (Sigma) for 5 minutes followed by medium collection for nitrite measurements as described below.
Endothelial cells were harvested in lysis buffer, sonicated and subjected to electrophoresis using 10% Bis-Tris gels (Invitrogen) as previously described^13. Proteins were transferred to nitrocellulose, incubated with phospho-eNOS S1177 (BD Biosciences) or total eNOS (Sigma) and visualized and quantitated using Li-Cor Odyssey Imager as previously described^14.

[2] = system: human coronary endothelial cells; assay: Nitrite measurements from media of coronary endothelial cells; assay type: cell-based; conditions: unstimulated cells
Procedure: as §1
Quantitation of nitrite in culture medium was measured by chemiluminescence using a Sievers nitric oxide analyzer according to manufacturer's instructions. Quantitation of peaks was analyzed using Origin Pro 6.0 as previously described^9.

[3] = system: thoracodorsal arteries; assay: Pressure myography on thoracodorsal arteries, phenylephrine dose response with peptides; design: species or system mouse
[4] = system: thoracodorsal (TD) arteries; assay: Vasoreactivity of cannulated, pressurized TD arteries (pressure myograph) after siRNA transfection or PTU/L-NAME treatment; design: species or system mouse; conditions: for Contraction to 5-HT 50 nM post 15 min, % initial diameter: 15 minutes after stimulation, PTU 50 μM, n = 3; for PE CCRC Emax (% initial diameter): phenylephrine, TD arteries pretreated with PTU (50 μM) and/or L-NAME (100 μM)
Procedure: TD arteries (maximal internal diameter 261.7±4.2 μm) were isolated, cannulated in a pressure myograph (Danish MyoTechnology) and secured with 10.0 nylon sutures as described in^7. The TD arteries were placed in a circulating bath of Krebs-HEPES and perfused with Krebs-HEPES supplemented with 1% BSA. Arteries were maintained in a no flow state and pressurized at 80 mmHg as previously described^1. […] Acetylcholine (1 μM) was added to the bath to verify the integrity of the endothelium. […] At the end of the experiments, the solution was replaced by a calcium-free Krebs supplemented with 2 mM ethylenbis-(oxyethylenenitrolo) tetra-acetic acid (EGTA) and 10 μM sodium nitroprussiate in order to measure the maximal diameter. […] Internal diameters were calculated and results are expressed as a percentage of initial inner diameter (for PE dose responses) or percent dilation (for Ach dose responses). […] The TD arteries were isolated and cannulated as described above. The vessel lumen was perfused with Krebs-HEPES buffer supplemented with 1% BSA to flush out red blood cells and 100 μL of Nucleofector transfection reagent (HCAEC Nucleofector kit, Lonza) containing 10 nM control, Hb α or CytB5R3 siRNAs (see Table below) was perfused into the lumen. Arteries were then removed from the cannula and the ends ligated with 10-0 nylon sutures to maintain the transfection reagent and siRNA in the blood vessel lumen. Ligated arteries were then transferred to a transfection cuvette (Lonza) containing 100 μL Nucleofector transfection reagent and electroporated using the Nucleofector II Device (Lonza) using setting A-034. Transfected TDA were removed from cuvettes, re-cannulated and perfused with RPMI media+1% BSA to remove residual transfection reagent and siRNA. Arteries were cultured for 15-18 hours at 37° C. in RPMI+1% BSA and used for vasoreactivity studies or processed for immunofluorescence microscopy. To eliminate variability of transfection efficiency and vessel viability, one control siRNA vessel and one Hb α/CytBSR3 vessel were transfected daily.

[5] = system: TD arteries; assay: Nitric oxide diffusion assay, ex vivo TD arteries; design: species or system mouse; conditions: isolated TD arteries
Procedure: (§2) Anaerobic aqueous NO was generated by bubbling 100% helium into a beaker containing deionized water. Following 30 minutes, 99.5% NO′ gas was bubbled for an additional 40 minutes giving a final saturated concentration of approximately 1.7 mM.
(§3) Both ECs and SMCs were cultured on 12 mm Transwells as described above. After three days of co-culture, media was removed and replaced with 500 μL of Krebs buffer on each side of the Transwells and cells were allowed to equilibrate for 15 minutes. Next, 100 μL of anaerobic aqueous NO was added to the 500 μLs of Kreb's buffer on the EC side of the Transwell. After 5 minutes, 100 μL of Krebs buffer was immediately removed and injected into a Seivers Nitric Oxide Analyzer (NOA). Data was quantified using Origin Pro 6.0 by calculating the area under the peak over time. Differences between samples were expressed as μM change. For experiments on ex vivo samples, TD arteries were cannulated (as described above) in puddle of 100 μL of Krebs buffer created by parafilm. […] Data was quantified using Origin Pro 6.0 by calculating the area under the peak over time. Differences between samples were expressed as μM change.

[6] = system: VCCC (human coronary ECs and SMCs); assay: Nitric oxide diffusion assay, VCCC; assay type: cell-based
Procedure: as §2, §3

Scrambled control peptide FPYFSTKLTT (SEQ ID NO:40) with HIV-tat tag YGRKKRRQRRR at the N-terminus [Scr X]
Basal eNOS phosphorylation on serine 1177 [1]: no differences | Accumulation of nitrite in the culture medium, basal [2]: no differences | Constriction in phenylephrine dose response curves ([3]; compared to untreated arteries): no difference from control | Emax, vascular reactivity dose response curves ([3]; phenylephrine dose response, thoracodorsal arteries perfused with peptide): 38.3 ± 2.4 % initial diameter

COC(=O)[C@@H](N)CCCNC(=N)N[N+](=O)[O-] [L-NAME, L-N^G-nitroarginine methyl ester]
Contraction to 5-HT 50 nM post 15 min, % initial diameter ([4]; TD arteries): 57.0 ± 3.29 n.s. % initial diameter | PE CCRC Emax (% initial diameter) [4]: 62.6 ± 6.1 % initial diameter

CCCc1cc(=O)[nH]c(=S)[nH]1 [PTU, propylthiouracil]
Reversibility of the PTU effect with L-thyroxine supplementation ([4]; L-thyroxin 50 μM + PTU, 10 μM PE stimulation): not reversible | Basal tone ([4]; TD arteries): No difference in basal tone | Contraction to 5-HT 50 nM post 15 min, % initial diameter ([4]; TD arteries): 64.1 ± 4.5 n.s. % initial diameter | Ach CCRC Emax (% Dilation) ([4]; acetylcholine, TD arteries pretreated with PTU): 94.9 ± 1.7 % Dilation | PE CCRC Emax (% initial diameter) [4]: 91.4 ± 2.5 % initial diameter | PE and Ach responses with the addition of L-NAME ([4]; plus NOS inhibitor L-NAME, TD arteries): comparable to control conditions | NO diffusion across the vessel wall [5]: increased NO diffusion | NO diffusion in the VCCC [6]: increased NO diffusion

[C-]#[O+] [carbon monoxide]
NO diffusion across the vessel wall [5]: increased NO diffusion | NO diffusion in the VCCC [6]: increase in NO diffusion
